Measured values published in patent publication US12325710B2, “Substituted 1,2,3,4,5,6-hexahydroazepino[4,5-b]indoles for treating brain disorders” (priority 2019, dated 2025).
Entries after “also recorded” stand apart in the source; their conditions may differ.

How the values were obtained:
[1] = tested on: opioid receptors (MOR, KOR, DOR); assay: Opioid receptor functional assays (Gi/o-mediated cAMP inhibition); format: cell-based, human
Protocol: (§1) Serotonin and Opioid Receptor Functional Assays. Functional assay screens at 5-HT and opioid receptors were performed in parallel using the same compound dilutions and 384-well format high-throughput assay platforms. Assays assessed activity at all human isoforms of the receptors, except where noted for the mouse 5-HT2A receptor. Receptor constructs in pcDNA vectors were generated from the Presto-Tango GPCR library with minor modifications. All compounds were serially diluted in drug buffer (HBSS, 20 mM HEPES, pH 7.4 supplemented with 0.1% bovine serum albumin and 0.01% ascorbic acid) and dispensed into 384-well assay plates using a FLIPR^TETRA (Molecular Devices). Every plate included a positive control such as 5-HT (for all 5-HT receptors), DADLE (DOR), salvinorin A (KOR), and DAMGO (MOR). For measurements of 5-HT2A, 5-HT2B, and 5-HT2C Gq-mediated calcium flux function, HEK Flp-In 293 T-Rex stable cell lines (Invitrogen) were loaded with Fluo-4 dye for one hour, stimulated with compounds and read for baseline (0-10 seconds) and peak fold-over-basal fluorescence (5 minutes) at 25° C. on the FLIPR^TETRA. For measurement of 5-HT6 and 5-HT7a functional assays, Gs-mediated cAMP accumulation was detected using the split-luciferase GloSensor assay in HEKT cells measuring luminescence on a Microbeta Trilux (Perkin Elmer) with a 15 min drug incubation at 25° C. […]

5-HT2C = target: T1, 5-HT2C (Homo sapiens, UniProt P28335); assay: 5-HT2C Gq-mediated calcium flux functional assay; format: cell-based
T1 sequence (P28335 33-458): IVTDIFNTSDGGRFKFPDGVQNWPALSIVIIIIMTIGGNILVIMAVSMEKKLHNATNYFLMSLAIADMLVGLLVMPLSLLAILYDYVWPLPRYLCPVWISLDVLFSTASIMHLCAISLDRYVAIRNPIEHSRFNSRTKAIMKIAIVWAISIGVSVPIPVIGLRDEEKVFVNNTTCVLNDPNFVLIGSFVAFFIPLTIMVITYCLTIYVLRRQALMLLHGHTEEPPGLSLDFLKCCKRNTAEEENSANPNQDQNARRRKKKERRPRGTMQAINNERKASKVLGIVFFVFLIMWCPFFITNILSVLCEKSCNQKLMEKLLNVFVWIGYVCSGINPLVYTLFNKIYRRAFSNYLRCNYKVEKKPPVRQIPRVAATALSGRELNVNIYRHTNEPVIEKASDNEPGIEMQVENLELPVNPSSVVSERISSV
Protocol: as §1

5-HT2B receptors = 5-HT2B receptors (Homo sapiens, UniProt P41595); assay: 5-HT2B Gq-mediated calcium flux functional assay; format: cell-based
Protocol: Serotonin and Opioid Receptor Functional Assays. Functional assay screens at 5-HT and opioid receptors were performed in parallel using the same compound dilutions and 384-well format high-throughput assay platforms. Assays assessed activity at all human isoforms of the receptors, except where noted for the mouse 5-HT2A receptor. Receptor constructs in pcDNA vectors were generated from the Presto-Tango GPCR library with minor modifications. All compounds were serially diluted in drug buffer (HBSS, 20 mM HEPES, pH 7.4 supplemented with 0.1% bovine serum albumin and 0.01% ascorbic acid) and dispensed into 384-well assay plates using a FLIPR^TETRA (Molecular Devices). Every plate included a positive control such as 5-HT (for all 5-HT receptors), DADLE (DOR), salvinorin A (KOR), and DAMGO (MOR). For measurements of 5-HT2A, 5-HT2B, and 5-HT2C Gq-mediated calcium flux function, HEK Flp-In 293 T-Rex stable cell lines (Invitrogen) were loaded with Fluo-4 dye for one hour, stimulated with compounds and read for baseline (0-10 seconds) and peak fold-over-basal fluorescence (5 minutes) at 25° C. on the FLIPR^TETRA. For measurement of 5-HT6 and 5-HT7a functional assays, Gs-mediated cAMP accumulation was detected using the split-luciferase GloSensor assay in HEKT cells measuring luminescence on a Microbeta Trilux (Perkin Elmer) with a 15 min drug incubation at 25° C. For 5-HT1A, 5-HT1B, 5-HT1F, MOR, KOR, and DOR functional assays, Gi/o-mediated cAMP inhibition was measured using the split-luciferase GloSensor assay in HEKT cells, conducted similarly as above, but in combination with either 0.3 μM isoproterenol (5-HT1A, 5-HT1B, 5-HT1F) or 1 μM forskolin (MOR, KOR, and DOR) to stimulate endogenous cAMP accumulation. For measurement of 5-HT1D, 5-HT1E, 5-HT4, and 5-HT5A functional assays, β-arrestin2 recruitment was measured by the Tango assay utilizing HTLA cells expressing TEV fused-β-arrestin2, as described previously with minor modifications. […]

zebrafish = assay: Zebrafish developmental toxicity assay; format: in vivo
human 5-HT2A receptors = human 5-HT2A receptors (Homo sapiens, UniProt P28223); assay: 5-HT2A Gq-mediated calcium flux functional assay (human); format: cell-based
Protocol: as §1

C57/BL6J mice = assay: Two-bottle choice alcohol consumption (binge drinking); format: in vivo, mouse
Protocol: Alcohol Consumption. Male C57/BL6J mice (6-8 weeks old) were obtained from The Jackson Laboratory (Bar Harbor, ME) and were individually housed in a reverse light/dark cycle room (lights on […]). Temperature was kept constant at 22±2° C., and relative humidity was maintained at 50±5%. Mice were given access to food and tap water ad libitum. After one week of habituation to the vivarium, the two-bottle choice alcohol-drinking paradigm was conducted as described previously. For 7 weeks, mice were given intermittent access in their home cage to alcohol. On Mondays, Wednesdays, and Fridays, two bottles were made available for 24 h—one containing 20% ethanol and another containing only water. On Tuesdays, Thursdays, Saturdays, and Sundays, the animals were only given access to water. After 7 weeks, mice were administered TBG (50 mg/kg) or vehicle (saline) via intraperitoneal injection 3 h before the beginning of a drinking session. Ethanol (g/kg) and water (ml/kg) intake were monitored during the first 4 h (initial binge), the first 24 h, and the second 24 h. Next, the animals were only given water for 48 h before the start of another drinking session when ethanol and water consumption was monitored. The placement (right or left) of the bottles was altered in each session to control for side preference. Spillage was monitored using an additional bottle in a nearby unused cage. Alcohol preference was calculated as the ratio between alcohol/(water+alcohol). Mice were tested using a counterbalanced, within subject design with one week of drug-free alcohol drinking regimen between treatments. One mouse was excluded because the bottle was leaking.

[2] = tested on: mouse primary sensory cortex; assay: In vivo spine dynamics, transcranial 2-photon imaging; settings: 24 h after i.p. dose; TBG 50 mg/kg, DOI 10 mg/kg
Protocol: In Vivo Spine Dynamics. Male and female Thy1-GFP-M line mice (n=5 per condition) were purchased from The Jackson Laboratory (JAX #007788) and maintained in UCSC animal facilities according to an IACUC approved protocol. In vivo transcranial two-photon imaging and data analysis were performed as previously described. Briefly, mice were anesthetized with an intraperitoneal (i.p.) injection of a mixture of ketamine (87 mg/kg) and xylazine (8.7 mg/kg). A small region of the exposed skull was manually thinned down to 20-30 μm for optical access. Spines on apical dendrites in mouse primary sensory cortices were imaged using a Bruker Ultima IV two-photon microscope equipped with an Olympus water-immersion objective (40×, NA=0.8) and a Ti:Sapphire laser (Spectra-Physics Mai-Tai, excitation wavelength 920 nm). Images were taken at a zoom of 4.0 (pixel size 0.143×0.143 μm) and Z-step size of 0.7 μm. The mice received an i.p. injection (injection volume=5 mL/kg) of DOI (10 mg/kg) or TBG (50 mg/kg) immediately after they recovered from anesthesia given prior to the first imaging session. The animals were re-imaged 24 h after drug administration. Dendritic spine dynamics were analyzed using ImageJ. Spine formation and elimination were quantified as percentages of spine number on day 0.

Chain of human 5-HT2A receptors (P28223 whole entry): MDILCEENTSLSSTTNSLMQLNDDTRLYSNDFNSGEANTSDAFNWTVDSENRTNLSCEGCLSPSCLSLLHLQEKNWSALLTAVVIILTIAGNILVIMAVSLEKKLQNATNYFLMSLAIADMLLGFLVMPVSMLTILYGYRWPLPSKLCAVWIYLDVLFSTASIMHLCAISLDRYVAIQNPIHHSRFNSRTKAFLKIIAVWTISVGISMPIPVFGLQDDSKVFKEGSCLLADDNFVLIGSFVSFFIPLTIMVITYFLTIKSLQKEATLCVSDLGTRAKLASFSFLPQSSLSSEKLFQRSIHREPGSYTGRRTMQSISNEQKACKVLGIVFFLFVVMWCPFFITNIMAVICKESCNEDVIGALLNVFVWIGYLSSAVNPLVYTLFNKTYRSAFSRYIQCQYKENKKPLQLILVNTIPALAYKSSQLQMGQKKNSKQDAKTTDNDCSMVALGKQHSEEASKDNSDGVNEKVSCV
Chain of 5-HT2B receptors (P41595 whole entry, canonical isoform): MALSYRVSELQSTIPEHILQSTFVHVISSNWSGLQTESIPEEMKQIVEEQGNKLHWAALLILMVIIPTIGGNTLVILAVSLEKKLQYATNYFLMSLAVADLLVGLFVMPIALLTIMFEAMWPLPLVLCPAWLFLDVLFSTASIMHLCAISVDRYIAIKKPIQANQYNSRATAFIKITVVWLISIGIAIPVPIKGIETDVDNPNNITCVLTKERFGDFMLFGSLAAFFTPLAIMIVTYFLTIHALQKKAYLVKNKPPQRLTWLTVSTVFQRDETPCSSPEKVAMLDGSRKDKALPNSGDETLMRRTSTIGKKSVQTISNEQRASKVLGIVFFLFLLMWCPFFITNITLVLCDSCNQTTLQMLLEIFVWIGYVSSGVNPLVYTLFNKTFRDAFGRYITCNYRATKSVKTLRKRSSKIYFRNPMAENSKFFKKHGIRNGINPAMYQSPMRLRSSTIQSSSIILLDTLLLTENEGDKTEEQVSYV

SMILES: COc1ccc2c3c([nH]c2c1)CCN(C)CC3 [TBG]
- opioid agonist activity [1]: weak or no opioid agonist activity
- 5-HT2C agonist activity compared to 5-MeO-DMT (5-HT2C): weaker 5-HT1A and 5-HT2C agonist activity
- activity mode at 5-HT2B receptors (5-HT2B receptors): antagonists
- proportion of viable to non-viable fish (zebrafish; 66 μM, 5 dpf): statistically indistinguishable from vehicle control; also recorded: does not cause developmental toxicity
- malformations, mortality, non-viable fish (zebrafish; 100 μM, 2 and 5 dpf): significantly fewer non-viable fish than ibogaine or noribogaine treatments
- agonist activity at human 5-HT2A receptors (human 5-HT2A receptors): potent agonist activity
- EtOH consumption in the days following administration (C57/BL6J mice; TBG 50 mg/kg i.p.): long-lasting decreases in EtOH consumption; also recorded: lower for at least two days
- EtOH preference during binge drinking session (C57/BL6J mice; TBG 50 mg/kg i.p.): reduces EtOH consumption and preference
- water intake (C57/BL6J mice; TBG 50 mg/kg i.p.): without impacting H2O intake; also recorded: not affected
- EtOH consumption during binge drinking session (C57/BL6J mice; first 4 h, TBG 50 mg/kg i.p. 3 h before session): reduces EtOH consumption and preference; also recorded: robustly reduces binge drinking
- spine elimination [2]: no effect on spine elimination; also recorded: Neither TBG nor DOI affected spine elimination
- spine formation [2]: increased spine formation
